Laboratory results: paper PMC10165104, “The immunosuppressive effects and mechanisms of loureirin B on collagen-induced arthritis in rats” (Frontiers in Immunology, 2023)

Molecular target: T1, Kv1.3 (mKv1.3) voltage-gated potassium channel (Mus musculus, UniProt P16390)
T1 construct: gene Kcna3
Assay: whole-cell voltage clamp of mKv1.[…] expressed in HEK293T cells
Format: cell-based

T1 sequence (P16390 whole entry): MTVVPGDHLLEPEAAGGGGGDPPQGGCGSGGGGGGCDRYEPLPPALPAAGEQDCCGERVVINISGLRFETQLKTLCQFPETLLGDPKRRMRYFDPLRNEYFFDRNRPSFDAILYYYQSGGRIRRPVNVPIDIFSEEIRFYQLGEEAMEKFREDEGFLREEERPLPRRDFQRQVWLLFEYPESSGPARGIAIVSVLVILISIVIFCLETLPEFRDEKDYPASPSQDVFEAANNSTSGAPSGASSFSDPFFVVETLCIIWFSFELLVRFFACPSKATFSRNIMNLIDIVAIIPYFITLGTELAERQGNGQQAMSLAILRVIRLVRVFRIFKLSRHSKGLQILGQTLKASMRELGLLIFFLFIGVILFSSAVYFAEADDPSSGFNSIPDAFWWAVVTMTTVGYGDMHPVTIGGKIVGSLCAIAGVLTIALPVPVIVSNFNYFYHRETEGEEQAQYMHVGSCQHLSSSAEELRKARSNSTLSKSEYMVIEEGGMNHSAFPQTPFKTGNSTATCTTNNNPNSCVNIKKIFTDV

Question: COc1cc(OC)c(CCC(=O)c2ccc(O)cc2)c(OC)c1 [LrB, Loureirin B] was tested. Which IC50 did it give?
Answer: 6.33 ± 0.49 µM
